According to US10286079B2, “Modified cytotoxins and their therapeutic use” (The Regents of the University of California, priority 2015, dated 2019):

How the values were obtained:
HeLa cells = assay: In vitro cytotoxicity, CellTiter Blue cell viability; assay type: cell-based; settings: 3 days
Description: HeLa cells were obtained from ATCC and incubated at 37° C. at 5% CO2 using DMEM supplemented with 10% FBS, and 1× of sodium pyruvate, non-essential amino acids, L-glutamine and antibiotics.
Cytotoxicity of compounds was evaluated using the CellTiter Blue assay (Promega). HeLa cells were plated in 96-well plates, at a density of 3000 cells/well 1 day before treatment. Treatments were prepared as 1000× serial stock dilutions in DMSO, then diluted into media for 1×, 0.1% DMSO treatment solutions. Plating media was removed, then treatments were added to the wells. After 3 days, the media was removed and replaced with 100 uL complete DMEM without phenol red. Then 20 uL of CellTiter Blue reagent was added, and the plates incubated for two hours at 37° C. Fluorescence was measured at 590 nm with excitation at 560 nm. To determine viability, average background fluorescence was subtracted from average fluorescence readings of the experimental wells (three wells per treatment concentration). Viability was calculated as the average background-subtracted signal in a well compared to that of a negative control well (treatment with 0.1% DMSO/media).
Viabilities were fit in GraphPad Prism using a non-linear, dose-dependent inhibition curve. The IC50 numbers given in the table reflect the concentration at which the cell death is 50% of the maximum response.

HSA = HSA (Homo sapiens, UniProt P02768); assay: in vitro; assay type: in vitro ADME; settings: HSA (human serum albumin), read-out: % bound to protein (converted); for fraction unbound at 1.5 μM: concentration 1.5 μM; for fraction unbound at 3 μM: concentration 3.0 μM
Chain of HSA (P02768 25-609): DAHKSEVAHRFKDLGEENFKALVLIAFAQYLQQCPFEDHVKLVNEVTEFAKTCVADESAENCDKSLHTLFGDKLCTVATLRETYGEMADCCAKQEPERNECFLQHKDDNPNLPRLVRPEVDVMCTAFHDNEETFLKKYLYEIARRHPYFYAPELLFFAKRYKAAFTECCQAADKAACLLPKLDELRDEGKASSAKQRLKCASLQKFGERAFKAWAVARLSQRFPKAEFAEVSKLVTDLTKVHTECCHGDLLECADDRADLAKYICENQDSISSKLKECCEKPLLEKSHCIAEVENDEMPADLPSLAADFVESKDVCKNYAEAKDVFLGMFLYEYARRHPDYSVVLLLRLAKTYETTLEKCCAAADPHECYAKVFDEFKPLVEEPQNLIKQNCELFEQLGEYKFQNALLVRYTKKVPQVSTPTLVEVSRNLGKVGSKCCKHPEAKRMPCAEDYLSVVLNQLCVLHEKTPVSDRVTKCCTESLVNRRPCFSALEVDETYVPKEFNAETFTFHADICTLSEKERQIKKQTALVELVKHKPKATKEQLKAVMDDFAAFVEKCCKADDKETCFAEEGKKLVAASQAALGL
Description: Using a dialysis-based protein binding assay according to the method described in Cohen, Plasma Protein-Binding Methods in Drug Discovery in OPTIMIZATION IN DRUG DISCOVERY: IN VITRO METHODS, Yan & Caldwell, eds., pp. 111-122 (Humana Press, Totowa, N.J., 2004), which is hereby incorporated by reference as though set forth herein in its entirety. The percentage of PTX-FA18 and the percentage of octadecanedioic acid (C18 Diacid) bound to the protein at different concentrations was measured.

[1] = Homo sapiens, 72 h, average of at least 3 replicates

CC(=O)O[C@H]1C(=O)[C@@]2(C)[C@H]([C@H](OC(=O)c3ccccc3)[C@]3(O)C[C@H](OC(=O)[C@H](OC(=O)CCCCCCCCCCCCCCCCCCC(=O)O)[C@@H](NC(=O)c4ccccc4)c4ccccc4)C(C)=C1C3(C)C)[C@]1(OC(C)=O)CO[C@@H]1C[C@@H]2O [PTX-FA20, Paclitaxel-C20 Diacid Conjugate]
IC50 (HeLa cells; [1]): 27.8 nM

O=C(O)CCCCCCCCCCCCCCCCC(=O)O [C18 Diacid, octadecanedioic acid]
fraction unbound at 1.5 μM (HSA): 0.009 | fraction unbound at 3 μM (HSA): 0.002 | fraction unbound at 20 μM (HSA; concentration 20.0 μM): 0.026

CC(=O)O[C@H]1C(=O)[C@@]2(C)[C@H]([C@H](OC(=O)c3ccccc3)[C@]3(O)C[C@H](OC(=O)[C@H](OC(=O)CCCCCCCCCCCCCCCCC(=O)O)[C@@H](NC(=O)c4ccccc4)c4ccccc4)C(C)=C1C3(C)C)[C@]1(OC(C)=O)CO[C@@H]1C[C@@H]2O [PTX-FA18, Paclitaxel-C18 Diacid Conjugate]
fraction unbound at 1.5 μM (HSA): 0.005 | fraction unbound at 3 μM (HSA): 0.003 | IC50 (HeLa cells; [1]): 64.4 nM

CC(=O)O[C@H]1C(=O)[C@@]2(C)[C@H]([C@H](OC(=O)c3ccccc3)[C@]3(O)C[C@H](OC(=O)[C@H](OC(=O)CCCCCCC/C=C/CCCCCCCC(=O)O)[C@@H](NC(=O)c4ccccc4)c4ccccc4)C(C)=C1C3(C)C)[C@]1(OC(C)=O)CO[C@@H]1C[C@@H]2O [PTX-FAu18, Paclitaxel-uC18 Diacid Conjugate]
IC50 (HeLa cells; [1]): 40.1 nM

CC[C@@]1(OC(=O)CCCCCCCCCCCCCCCCC(=O)O)C(=O)OCc2c1cc1n(c2=O)Cc2cc3ccccc3nc2-1 [CPT-FA18, Camptothecin-C18 Diacid Conjugate]
IC50 (HeLa cells; [1]): 11000 nM

COC(=O)CCCCCCCCCCCCCCCCC(=O)NCCCCCC(=O)O[C@@H](C(=O)O[C@H]1C[C@@]2(O)[C@@H](OC(=O)c3ccccc3)[C@@H]3[C@]4(OC(C)=O)CO[C@@H]4C[C@H](O)[C@@]3(C)C(=O)[C@H](OC(C)=O)C(=C1C)C2(C)C)[C@@H](NC(=O)c1ccccc1)c1ccccc1 [PTX-FAE18-Aa, Paclitaxel-C18 Diacid Conjugate+Amino Acid Spacer]
IC50 (HeLa cells; Homo sapiens, 72 h, one experiment (*)): 2330 nM

Methotrexate-C18 Diacid Conjugate [MTX-FA18]
IC50 (HeLa cells; average of at least 3 replicates): 3010 nM

CC(=O)O[C@H]1C(=O)[C@@]2(C)[C@H]([C@H](OC(=O)c3ccccc3)[C@]3(O)C[C@H](OC(=O)[C@H](OC(=O)CCCCCCCCCCCCCCC(=O)O)[C@@H](NC(=O)c4ccccc4)c4ccccc4)C(C)=C1C3(C)C)[C@]1(OC(C)=O)CO[C@@H]1C[C@@H]2O [PTX-FA16, Paclitaxel-C16 Diacid Conjugate]
IC50 (HeLa cells; [1]): 137 nM
